In ChEMBL document CHEMBL3046049, “Protoporphyrinogen-IX Oxidase Inhibition by N-(2, 4, 5-Trisubstituted phenyl)-3, 4, 5, 6-tetrahydrophthalimides” (J Pestic Sci, 1997):

Legend:
[1] = biological target: T1, Protoporphyrinogen IX oxidase (Zea mays, UniProt Q9FYV8); assay: Inhibition of protoporphyrinogen IX oxidase in Zea mays (maize) seed after 5 min by Dixon plot analysis; details: read-out: pI50 (converted)
T1 sequence (Q9FYV8 whole entry): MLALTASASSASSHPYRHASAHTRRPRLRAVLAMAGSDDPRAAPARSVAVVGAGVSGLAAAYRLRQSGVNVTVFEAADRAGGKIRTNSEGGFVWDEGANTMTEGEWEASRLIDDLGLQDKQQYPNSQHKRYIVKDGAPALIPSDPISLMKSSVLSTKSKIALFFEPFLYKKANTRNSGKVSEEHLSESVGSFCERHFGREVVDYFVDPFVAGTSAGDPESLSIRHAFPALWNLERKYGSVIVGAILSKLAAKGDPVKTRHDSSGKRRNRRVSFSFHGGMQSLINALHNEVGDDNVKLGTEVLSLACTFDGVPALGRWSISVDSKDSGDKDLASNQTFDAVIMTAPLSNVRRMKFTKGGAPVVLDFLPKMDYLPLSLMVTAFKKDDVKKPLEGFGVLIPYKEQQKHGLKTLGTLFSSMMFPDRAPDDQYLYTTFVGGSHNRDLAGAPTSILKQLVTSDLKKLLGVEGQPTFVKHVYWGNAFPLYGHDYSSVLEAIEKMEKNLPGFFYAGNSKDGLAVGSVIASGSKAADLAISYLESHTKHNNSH

[2] = tested on: Scenedesmus acutus; assay: Inhibition of light-induced ethane formation in Scenedesmus acutus after 20 hr; assay type: functional, organism-based; details: read-out: pI50 (converted)

SMILES	IC50 [1] [µM]	IC50 [2] [µM]
C#CCOc1cc(-n2nc3c(c2Cl)CCCC3)c(F)cc1Cl	0.001	–
O=C1C2=C(CCCC2)C(=O)N1c1ccc(Cl)cc1 [CHLOROPHTHALIUM]	0.0251	1
CCCCCOC(=O)COc1cc(N2C(=O)C3=C(CCCC3)C2=O)c(F)cc1Cl [FLUMICIORAC-PENTYL]	0.0011	–
C#CCN1C(=O)COc2cc(F)c(N3C(=O)C4=C(CCCC4)C3=O)cc21 [FLUMIOXAZIN]	–	0.316
C#CC(C)Oc1cc(N2C(=O)C3=C(CCCC3)C2=O)c(F)cc1Cl (configuration not stated) [FLUMIPROPYN]	0.001	0.105
COC(=O)CSc1cc(/N=c2\sc(=O)n3n2CCCC3)c(F)cc1Cl [FLUTHIACETMETHYL]	0.0479	0.955
CC(C)=C1OC(=O)N(c2cc(OC3CCCC3)c(Cl)cc2F)C1=O [PENTOXAZONE]	0.00525	0.631

The remaining lines, values ahead:

IC50 [1] [µM]	IC50 [2] [µM]	SMILES
0.000398	0.501	C#CCOc1cc(N2C(=O)C3=C(CCCC3)C2=O)ccc1Cl
0.002	0.126	C#CCOc1cc(N2C(=O)C3=C(CCCC3)C2=O)c(F)cc1Cl
0.00398	0.251	O=C1C2=C(CCCC2)C(=O)N1c1ccc(Cl)cc1F
0.00126	0.0794	CC(C)OC(=O)c1cc(N2C(=O)C3=C(CCCC3)C2=O)c(F)cc1Cl
0.001	0.2	CC(C)OC(=O)c1cc(N2C(=O)C3=C(CCCC3)C2=O)ccc1Cl
1.58	10	O=C1C2=C(CCCC2)C(=O)N1c1ccccc1
2.51	10	O=C1C2=C(CCCC2)C(=O)N1c1ccccc1F
0.001	0.631	C#CCN1C(=O)COc2ccc(N3C(=O)C4=C(CCCC4)C3=O)cc21
